In brackets after ≈: the same amount, converted by molar mass. Where two headings read alike, the source gives them in different places.
Legend:
[1] = test system: type-1 piliated clinical E. coli isolate UTI89; assay: Haemagglutination inhibition assay (HIA), guinea pig erythrocytes; format: cell-based, Escherichia coli; details: for MIC: read-out: Minimal inhibitory concentration (MIC) on haemagglutination
Procedure: Haemagglutination is observed as the red blood cells being held in suspension through the formation of a space-filling cross-linked network with the fimbriated bacteria.
The UIT89 clinical isolate was grown statically 37° C. for 48 hours in LB medium and analysed for haemagglutination of guinea pig red blood cells. Both bacteria and red blood cells (RBCs) were washed 3 times in ice-cold PBS (17 mM K/NaH2PO4, 150 mM NaCl). PBS was used for all dilutions. 96-well round-bottom microtiter plates were used for the dilutions. The titer for agglutination was determined in a 2-fold dilution series in PBS of the bacteria in a volume of 25 μL. Well 1 is a negative control without bacteria but 25 μL PBS. 25 μL PBS and 50 μL 5% RBCs were added to a final 100 μL volume. Upon 1 hour at 4° C., the titer was determined as the lowest concentration of bacteria that led to haemagglutination.
A bacterial concentration of twice the determined haemagglutination titer was kept constant in the haemagglutination inhibition assays. First, a 2-fold dilution series of the inhibitory compounds was performed in 25 μL PBS. Instead, in well 1 only 25 μL PBS was added as a negative control. 25 μL of the bacterial solution and 50 μl of 5% red blood cells were added to reach a final volume of 100 μL.

bladder cell line 5637 = assay: Anti-adhesives for bacterial bladder cell binding; format: cell-based; details: ten-fold dilution series
Procedure: The anti-adhesive capacities of the HM-derivatized cyclodextrins 1-4 were tested in vitro on the bladder cell line 5637, in a procedure analogous as previously described (Wellens, A. et al., PLoS ONE 3: e2040 (2008)). The CD conjugates 1-4 were diluted in a ten-fold series. The minimum inhibitory concentrations (MIC) indicate the concentrations of sugars at which we see some inhibition of binding of FimH to the bladder cells, they do however not indicate complete inhibition. MIC values for the CD-conjugates 1-4 followed a similar trend as the inhibitory concentrations recorded in HIA.
The anti-adhesive capacities of the n-heptyl α-D-mannoside-derivatized cyclodextrins 1-4 were tested in vitro on the bladder cell line 5637, in a procedure analogous to as described in (Wellens, A. et al., PLoS ONE 3: e2040 (2008)). The ligands have been diluted 10-fold and this is also the resolution limit of these tests.

[2] = test system: AIEC LF82 bacteria adhesion to T84 intestinal epithelial cells; assay: Adhesion assay on T84 cells, pre-, co- and post-incubation protocols (Example 21.2); format: cell-based, Escherichia coli; details: for Concentration leading to decreased adhesion levels of at least 50%: pre-incubation assay
Procedure: E. coli strain LF82 was isolated from a chronic ileal lesion of a patient with Crohn's disease (CD). Bacteria were grown routinely in Luria-Bertani (LB) broth overnight at 37° C. Intestinal epithelial cells T84 derived from colonic adenocarcinoma were maintained in an atmosphere containing 5% CO2 at 37° C. in DMEM/F12 (50/50) medium supplemented with 10% (v/v) heat-inactivated fetal calf serum (FCS), 1% L-glutamine, 100 000 U·l^−1 penicillin, 100 mg·l^−1 streptomycin, 25 μg·l^−1 amphotericin B.
T84 were seeded in 48-well plates at a concentration of 1.5×10^5 cells per well and grown for 48 h. AIEC LF82 bacteria were incubated 1 h with each mannoside prior the cell infection (pre-incubation protocol) or they were added simultaneously onto the cells (co-incubation protocol) in complete medium without antibiotics, containing heat inactivated fetal calf serum (FCS). Heptyl-mannose or compound 2 (example 1) were tested at a dose of 100; 10; 1 or 0.1 μM. D-D-mannose was tested at a dose of 10 000; 1 000; 100 or 10 μM and compound 1 (example 2bis) was tested at a concentration of 500; 100; 10 or 1 μM. Cells were infected with AIEC LF82 bacteria at a multiplicity of infection (MOI) of 10 bacteria per cell for 3 h at 37° C. For the post-incubation protocol, mannosides were incubated with cells for 3 h after bacterial infection. A washing step was realized before this post-incubation to eliminate non-adherent bacteria. Monolayers were washed in phosphate-buffered saline (PBS; pH 7.2) and cells were then lysed with 1% Triton X-100 in deionized water. Samples were diluted and plated onto Luria Bertani agar plates to determine the number of colony-forming units (CFU) recovered from the lysed monolayers. Results were expressed as percentages of residual adhesion, considering adhesion level of AIEC LF82 without mannoside treatment as 100%.

[3] = test system: primary human peripheral venous blood monocyte-derived macrophages; assay: Macrophage-mediated phagocytosis of aged PMN cells; format: cell-based; details: 10 nM
From the text: To estimate the influence of mannose-based inhibitors on possible inhibition of phagocytosis we used primary human peripheral venous blood monocyte-derived macrophages and estimated their ability to phagocyte autologous and allogenic human blood-derived PMN cells, as described by us previous (Bilyy, R. O. et al. (2012) J Biol Chem 287, 496-503).
Primary human PMN and MoMa from healthy volunteers were used. Monocytes were isolated from peripheral blood by LymphoPrep® gradient according to manufacture's recommendations for isolation of PBMC fraction. Plastic-attached cells of PBMC fraction were then cultured for 7 days in the presence of GM-CSF (100 U/ml) and autologous serum (added at days 1, 3 and 5) to generate MoMa. After 7 days of differentiation, the MoMa population was tested. They typically contain >95% CD11b+ cells, >90% CD14+ cells and >85% CD89+ cells. Phagocytosis was assessed by pre-incubation of PMN (freshly isolated or aged for 24 h) with mannose-based inhibitor for 30 min at 37° C. at Ringer buffer. Cells were thoroughly washed three times with Ringer solution and incubated with human MoMa for 2 hours. Uningested PMN were analyzed by flow cytometry (for this reason cells were pre-stained with CFSE (Rodel, F. et al. (2005) Strahlentherapie and Onkologie: Organ der Deutschen Rontgengesellschaft . . . [et al] 181, 456-462)) or in the hemocytometric chamber using Zeiss AxioImager A1 microscope. The percentage of prey cells that had been bound to or taken up by MoMa (% of phagocytosis) was calculated.

Compound | MIC ([1]; Escherichia coli, UTI89 1.2 10^9 CFU/ml) [µM] | MIC ([1]; Escherichia coli, UTI89 1.4 10^8 CFU/ml) [µM] | MIC ([1]; Escherichia coli, UTI89 7 10^7 CFU/ml) [µM] | Relative inhibitory potency (RIP), reference 1 ([1]; RIP (UTI89 1.2 10^9 CFU/ml)) | Relative inhibitory potency (RIP), reference HM ([1]; RIP (UTI89 1.2 10^9 CFU/ml)) | Relative inhibitory potency (RIP), reference 1 ([1]; RIP (UTI89 1.4 10^8 CFU/ml)) | Relative inhibitory potency (RIP), reference HM ([1]; RIP (UTI89 1.4 10^8 CFU/ml)) | Relative inhibitory potency (RIP), reference 1 ([1]; RIP (UTI89 7 10^7 CFU/ml)) | Relative inhibitory potency (RIP), reference HM ([1]; RIP (UTI89 7 10^7 CFU/ml)) | MIC, anti-adhesive potency on bladder cell line 5637 (bladder cell line 5637) [nM] | Adhesion in the post-incubation protocol ([2]; post-incubation, 10 μM) | Concentration leading to decreased adhesion levels of at least 50% [2] [µM] | Phagocytosis rate [3] | Relative inhibitory potency (RIP), reference 3 ([1]; RIP (UTI89 1.2 10^9 CFU/ml)) | Relative inhibitory potency (RIP), reference 3 ([1]; RIP (UTI89 1.4 10^8 CFU/ml)) | Relative inhibitory potency (RIP), reference 3 ([1]; RIP (UTI89 7 10^7 CFU/ml)) | MIC ([1]; UTI89 1.2 10^9 CFU/ml) [µM] | MIC ([1]; UTI89 1.4 10^8 CFU/ml) [µM] | MIC ([1]; UTI89 7 10^7 CFU/ml) [µM]
OCC1OC(OCCCCCCCOCc2cn(CC3OC4OC5C(Cn6cc(COCCCCCCCOC7OC(CO)C(O)C(O)C7O)nn6)OC(OC6C(Cn7cc(COCCCCCCCOC8OC(CO)C(O)C(O)C8O)nn7)OC(OC7C(Cn8cc(COCCCCCCCOC9OC(CO)C(O)C(O)C9O)nn8)OC(OC8C(Cn9cc(COCCCCCCCOC%10OC(CO)C(O)C(O)C%10O)nn9)OC(OC9C(Cn%10cc(COCCCCCCCOC%11OC(CO)C(O)C(O)C%11O)nn%10)OC(OC%10C(Cn%11cc(COCCCCCCCOC%12OC(CO)C(O)C(O)C%12O)nn%11)OC(OC3C(O)C4O)C(O)C%10O)C(O)C9O)C(O)C8O)C(O)C7O)C(O)C6O)C(O)C5O)nn2)C(O)C(O)C1O (stereo not shown) [Compound 2] | 1.56 (≈ 5.67 µg/mL) | 0.39 (≈ 1.42 µg/mL) | 0.24 (≈ 0.873 µg/mL) | >128 | 8 | 256 | 3 | 263 | 4 | 400 (≈ 1.45 µg/mL) | significant decreased adhesion | 0.1 | no phagocytosis decrease | – | – | – | – | – | –
CCCCCCCO[C@H]1O[C@H](CO)[C@@H](O)[C@H](O)[C@@H]1O [HM, Heptylmannoside, reference compound] | – | – | – | >16 | – | 67 | – | 64 | – | 4000 (≈ 1.11 µg/mL) | – | 10 | significantly decreased phagocytosis rate | 16 | 33 | 32 | 12.5 (≈ 3.48 µg/mL) | 1.50 (≈ 0.418 µg/mL) | 0.98 (≈ 0.273 µg/mL)

From US10273313B2, “Multimeric mannosides, a process for preparing the same and their uses as a drug” (CENTRE NATIONAL DE LA RECHERCHE SCIENTIFIQUE, priority 2012, dated 2019)
